Key:
[1] = biological target: 20S proteasome chymotrypsin-like activity (CT-L) (Homo sapiens, UniProt P20618+P28074); test: 20S proteasome chymotrypsin-like (CT-L) activity inhibition; assay type: biochemical; conditions: chymotrypsin-like activity of 20S proteasome
Experimental: The enzyme inhibitor analogs and prodrugs disclosed herein are useful in part because they inhibit the action of the 20S proteasome. […] That is, the instant compounds show selectivities for the 20S proteasome over other proteases such as cathepsins, calpains, papain, chymotrypsin, trypsin, tripeptidyl pepsidase II. The selectivities of the enzyme inhibitors for 20S proteasome are such that at concentrations below about 50 μM, the enzyme inhibitors show inhibition of the catalytic activity of the 20S proteasome, while not showing inhibition of the catalytic activity of other proteases such as cathepsins, calpains, papain, chymotrypsin, trypsin, tripeptidyl pepsidase II. In preferred embodiments, the enzyme inhibitors show inhibition of the catalytic activity of the 20S proteasome at concentrations below about 10 μM, while not showing inhibition of the catalytic activity of other proteases at these concentrations. In even more preferred embodiments, the enzyme inhibitors show inhibition of the catalytic activity of the 20S proteasome at concentrations below about 1 μM, while not showing inhibition of the catalytic activity of other proteases at these concentrations. Enzyme kinetic assays are disclosed in U.S. application Ser. No. 09/569,748, Example 2 and Stein et al., Biochem. (1996), 35, 3899-3908.
The chymotrypsin-like activity of 20S proteasome is characterized by cleavage of peptides in the immediate vicinity of large hydrophobic residues. In particular, the chymotrypsin-like activity of Ntn hydrolases can be determined by cleavage of a standard substrate. Examples of such substrates are known in the art. For example, a leucylleucylvalinyltyrosine derivative can be used. Enzyme kinetic assays are disclosed in U.S. application Ser. No. 09/569,748, Example 2 and Stein et al., Biochem. (1996), 35, 3899-3908.

[2] = biological target: T1, proteasome chymotrypsin-like activity (CT-L) (Homo sapiens, UniProt P28074); test: Cell-based CT-L proteasome activity inhibition
T1 construct: endogenous in cells
T1 sequence (P28074 60-263): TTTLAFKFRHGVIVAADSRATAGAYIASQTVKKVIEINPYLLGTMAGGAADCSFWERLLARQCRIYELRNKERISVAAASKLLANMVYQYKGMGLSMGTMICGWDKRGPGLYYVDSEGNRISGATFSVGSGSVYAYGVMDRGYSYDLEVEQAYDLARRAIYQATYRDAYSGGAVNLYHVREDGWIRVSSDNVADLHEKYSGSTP

IC50 [1] [nM]	IC50 [2] [nM]	SMILES
< 50	< 100	CC(C)C[C@H](NC(=O)[C@H](CCc1ccccc1)NC(=O)CO)C(=O)N[C@@H](Cc1ccccc1)C(=O)N[C@@H](CC(C)C)C(=O)[C@@]1(C)CO1 [Compound 1]
< 100	< 100	CC(C)C[C@H](NC(=O)[C@H](CCc1ccccc1)NC(=O)CN1CCCCC1)C(=O)N[C@@H](Cc1ccccc1)C(=O)N[C@@H](CC(C)C)C(=O)[C@@]1(C)CO1 [Compound 4]
< 50	< 150	CC(C)C[C@H](NC(=O)[C@H](CCc1ccccc1)NC(=O)CCCN(C)C)C(=O)N[C@@H](Cc1ccccc1)C(=O)N[C@@H](CC(C)C)C(=O)[C@@]1(C)CO1 [Compound 7]
< 100	< 100	Cc1nn(C)c(C)c1S(=O)(=O)N[C@@H](CCc1ccccc1)C(=O)N[C@@H](CC(C)C)C(=O)N[C@@H](Cc1ccccc1)C(=O)N[C@@H](CC(C)C)C(=O)[C@@]1(C)CO1 [Compound 8]

From US8207127B2, “Compounds for enzyme inhibition” (Onyx Technologies, Inc., priority 2004, dated 2012)
